# Assay results from patent US12084472B2 (Ardelyx, Inc., priority 2015, dated 2024).
# Target: T1, human TGR5 (Homo sapiens, UniProt Q8TDU6)
# T1 construct: expressed in transfected cells; host or cells: HEK293
# T1 sequence (Q8TDU6 1-330): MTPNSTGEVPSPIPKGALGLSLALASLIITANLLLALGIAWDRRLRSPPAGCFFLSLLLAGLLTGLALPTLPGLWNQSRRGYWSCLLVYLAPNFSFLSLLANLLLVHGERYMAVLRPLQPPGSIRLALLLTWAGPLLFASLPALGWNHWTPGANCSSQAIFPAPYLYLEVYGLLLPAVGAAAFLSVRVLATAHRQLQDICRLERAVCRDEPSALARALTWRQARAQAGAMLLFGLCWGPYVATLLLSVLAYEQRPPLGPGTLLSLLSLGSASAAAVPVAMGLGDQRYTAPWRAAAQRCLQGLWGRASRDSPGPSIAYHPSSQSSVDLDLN
# Test: Cell-based TGR5 assay (cAMP generation, HTRF)
# Details: HEK293 cells stably transfected with human TGR5; cAMP by HTRF; 30 minutes at 37° C.; read-out: pEC50 Human TGR5 (converted)
# Method in brief: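 Read-out was HTRF detection of cAMP, converted to concentration via a standard curve and fitted (3-parameter logistic) for pEC50 and maximal response. Agonist stimulation used HEK293 cells stably transfected with human TGR5, incubated 30 min at 37° C in IBMX-containing buffer at 0.05 nM to 10 μM compound.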
row,SMILES,EC50 [nM]
1,"O=C(NCCCCc1cc(Cl)c(COC2(c3cnccc3-c3ccccc3OC3COC3)CC2)cc1Cl)NC[C@H](O)[C@@H](O)[C@H](O)[C@H](O)CO [Compound I-193, 1-(4-{2,5-dichloro-4-[(1-{4-[2-(oxetan-3-yloxy)phenyl]pyridin-3-yl}cyclopropoxy)methyl]phenyl}butyl)-3-[(2S,3R,4R,5R)-2,3,4,5,6-pentahydroxyhexyl]urea]",< 100
2,"CN(CC(=O)O)CC(=O)N(CCCCc1cc(Cl)c(COC2(c3cnccc3-c3ccccc3OC3CC3)CC2)cc1Cl)C[C@H](O)[C@@H](O)[C@H](O)[C@H](O)CO [Compound I-195, 2-{[({4-[2,5-dichloro-4-({1-[4-(2-cyclopropoxyphenyl)pyridin-3-yl]cyclopropoxy}methyl)phenyl]butyl}[(2S,3R,4R,5R)-2,3,4,5,6-pentahydroxyhexyl]carbamoyl)methyl](methyl)amino}acetic acid]",126 to 1000
3,"CC(C)(CC(=O)O)CC(=O)N(CCCCc1cc(Cl)c(COC2(c3cnccc3-c3ccccc3OC3CC3)CC2)cc1Cl)C[C@H](O)[C@@H](O)[C@H](O)[C@H](O)CO [Compound I-196, 4-({4-[2,5-dichloro-4-({1-[4-(2-cyclopropoxyphenyl)pyridin-3-yl]cyclopropoxy}methyl)phenyl]butyl}[(2S,3R,4R,5R)-2,3,4,5,6-pentahydroxyhexyl]carbamoyl)-3,3-dimethylbutanoic acid]",126 to 1000
4,"O=C(O)CCNC(=O)N(CCCCc1cc(Cl)c(COC2(c3cnccc3-c3ccccc3OC3CC3)CC2)cc1Cl)C[C@H](O)[C@@H](O)[C@H](O)[C@H](O)CO [Compound I-198, 3-[({4-[2,5-dichloro-4-({1-[4-(2-cyclopropoxyphenyl)pyridin-3-yl]cyclopropoxy}methyl)phenyl]butyl}[(2S,3R,4R,5R)-2,3,4,5,6-pentahydroxyhexyl]carbamoyl)amino]propanoic acid]",< 100
5,"O=C(O)CCCNC(=O)N(CCCCc1cc(Cl)c(COC2(c3cnccc3-c3ccccc3OC3CC3)CC2)cc1Cl)C[C@H](O)[C@@H](O)[C@H](O)[C@H](O)CO [Compound I-199, 4-[({4-[2,5-dichloro-4-({1-[4-(2-cyclopropoxyphenyl)pyridin-3-yl]cyclopropoxy}methyl)phenyl]butyl}[(2S,3R,4R,5R)-2,3,4,5,6-pentahydroxyhexyl]carbamoyl)amino]butanoic acid]",126 to 1000
6,"CN(CC(=O)O)CC(=O)N(CCCCc1cc(Cl)c(CNC2(c3cnccc3-c3ccccc3OC3CC3)CC2)cc1Cl)C[C@H](O)[C@@H](O)[C@H](O)[C@H](O)CO [Compound I-200, 2-({[(4-{2,5-dichloro-4-[({1-[4-(2-cyclopropoxyphenyl)pyridin-3-yl]cyclopropyl}amino)methyl]phenyl}butyl)[(2S,3R,4R,5R)-2,3,4,5,6-pentahydroxyhexyl]carbamoyl]methyl}(methyl)amino) acetic acid]",1260 to 10000
7,"CC(C)(CC(=O)O)CC(=O)N(CCCCc1cc(Cl)c(CNC2(c3cnccc3-c3ccccc3OC3CC3)CC2)cc1Cl)C[C@H](O)[C@@H](O)[C@H](O)[C@H](O)CO [Compound I-201, 4-[(4-{2,5-dichloro-4-[({1-[4-(2-cyclopropoxyphenyl)pyridin-3-yl]cyclopropyl}amino)methyl]phenyl}butyl)[(2S,3R,4R,5R)-2,3,4,5,6-pentahydroxyhexyl]carbamoyl]-3,3-dimethylbutanoic acid]",1260 to 10000
8,"CS(=O)(=O)CC(=O)N(CCCCc1cc(Cl)c(COC2(c3cnccc3-c3ccccc3OC3CC3)CC2)cc1Cl)C[C@H](O)[C@@H](O)[C@H](O)[C@H](O)CO [Compound I-202, N-{4-[2,5-dichloro-4-({1-[4-(2-cyclopropoxyphenyl)pyridin-3-yl]cyclopropoxy}methyl)phenyl]butyl}-2-methanesulfonyl-N-[(2S,3R,4R,5R)-2,3,4,5,6-pentahydroxyhexyl]acetamide]",< 100
9,"CN(C)CC(=O)N(CCCCc1cc(Cl)c(COC2(c3cnccc3-c3ccccc3OC3CC3)CC2)cc1Cl)C[C@H](O)[C@@H](O)[C@H](O)[C@H](O)CO [Compound I-203, N-{4-[2,5-dichloro-4-({1-[4-(2-cyclopropoxyphenyl)pyridin-3-yl]cyclopropoxy}methyl)phenyl]butyl}-2-(dimethylamino)-N-[(2S,3R,4R,5R)-2,3,4,5,6-pentahydroxyhexyl]acetamide]",< 100
10,"CN(C)CCN(C[C@H](O)[C@@H](O)[C@H](O)[C@H](O)CO)C(=O)CCCCc1cc(Cl)c(COC2(c3cnccc3-c3ccccc3OC3CC3)CC2)cc1Cl [Compound I-207, 5-[2,5-dichloro-4-({1-[4-(2-cyclopropoxyphenyl)pyridin-3-yl]cyclopropoxy}methyl)phenyl)-N-[2-(dimethylamino)ethyl]-N-[(2S,3R,4R,5R)-2,3,4,5,6-pentahydroxyhexyl]pentanamide]",126 to 1000
11,"O=C([C@@H](O)[C@@H](O)[C@H](O)[C@@H](O)CO)N(CCCCc1cc(Cl)c(COC2(c3cnccc3-c3ccccc3OC3CC3)CC2)cc1Cl)C1CCOCC1 [Compound I-216, (2S,3S,4R,5S)-N-{4-[2,5-dichloro-4-({1-[4-(2-cyclopropoxyphenyl)pyridin-3-yl]cyclopropoxy}methyl)phenyl]butyl}-2,3,4,5,6-pentahydroxy-N-(oxan-4-yl)hexanamide]",126 to 1000
12,"O=C(CCCCc1cc(Cl)c(COC2(c3cnccc3-c3ccccc3OC3CC3)CC2)cc1Cl)N(CCCO)C[C@H](O)[C@@H](O)[C@H](O)[C@H](O)CO [Compound I-218, 5-[2,5-dichloro-4-({1-[4-(2-cyclopropoxyphenyl)pyridin-3-yl]cyclopropoxy}methyl)phenyl]-N-(3-hydroxypropyl)-N-[(2S,3R,4R,5R)-2,3,4,5,6-pentahydroxyhexyl]pentanamide]",< 100

# Next, values leading:
row,EC50 [nM],SMILES
1,< 100,"CCCN(CCCCc1cc(Cl)c(COC2(c3cnccc3-c3ccccc3OC3CC3)CC2)cc1Cl)C(=O)[C@@H](O)[C@@H](O)[C@H](O)[C@@H](O)CO [Compound I-205, (2S,3S,4R,5S)-N-{4-[2,5-dichloro-4-({1-[4-(2-cyclopropoxyphenyl)pyridin-3-yl]cyclopropoxy}methyl)phenyl]butyl}-2,3,4,5,6-pentahydroxy-N-propylhexanamide]"
2,< 100,"COCCN(CCCCc1cc(Cl)c(COC2(c3cnccc3-c3ccccc3OC3CC3)CC2)cc1Cl)C(=O)[C@@H](O)[C@@H](O)[C@H](O)[C@@H](O)CO [Compound I-206, (2S,3S,4R,5S)-N-{4-[2,5-dichloro-4-({1-[4-(2-cyclopropoxyphenyl)pyridin-3-yl]cyclopropoxy}methyl)phenyl]butyl}-2,3,4,5,6-pentahydroxy-N-(2-methoxyethyl)hexanamide]"
3,< 100,"O=C([C@@H](O)[C@@H](O)[C@H](O)[C@@H](O)CO)N(CCCCc1cc(Cl)c(COC2(c3cnccc3-c3ccccc3OC3CC3)CC2)cc1Cl)CC1CC1 [Compound I-211, (2S,3S,4R,5S)-N-(cyclopropylmethyl)-N-{4-[2,5-dichloro-4-({1-[4-(2-cyclopropoxyphenyl)pyridin-3-yl]cyclopropoxy}methyl)phenyl]butyl}-2,3,4,5,6-pentahydroxyhexanamide]"
4,< 100,"COCCCN(CCCCc1cc(Cl)c(COC2(c3cnccc3-c3ccccc3OC3CC3)CC2)cc1Cl)C(=O)[C@@H](O)[C@@H](O)[C@H](O)[C@@H](O)CO [Compound I-212, (2S,3S,4R,5S)-N-{4-[2,5-dichloro-4-({1-[4-(2-cyclopropoxyphenyl)pyridin-3-yl]cyclopropoxy}methyl)phenyl]butyl}-2,3,4,5,6-pentahydroxy-N-(3-methoxypropyl)hexanamide]"
5,< 100,"O=C([C@@H](O)[C@@H](O)[C@H](O)[C@@H](O)CO)N(CCO)CCCCc1cc(Cl)c(COC2(c3cnccc3-c3ccccc3OC3CC3)CC2)cc1Cl [Compound I-213, (2S,3S,4R,5S)-N-{4-[2,5-dichloro-4-({1-[4-(2-cyclopropoxyphenyl)pyridin-3-yl]cyclopropoxy}methyl)phenyl]butyl}-2,3,4,5,6-pentahydroxy-N-(2-hydroxyethyl)hexanamide]"
6,< 100,"C[C@@H](O)CN(CCCCc1cc(Cl)c(COC2(c3cnccc3-c3ccccc3OC3CC3)CC2)cc1Cl)C(=O)[C@@H](O)[C@@H](O)[C@H](O)[C@@H](O)CO [Compound I-214, (2S,3S,4R,5S)-N-{4-[2,5-dichloro-4-({1-[4-(2-cyclopropoxyphenyl)pyridin-3-yl]cyclopropoxy}methyl)phenyl]butyl}-2,3,4,5,6-pentahydroxy-N-[(2R)-2-hydroxypropyl]hexanamide]"
7,< 100,"C[C@H](O)CN(CCCCc1cc(Cl)c(COC2(c3cnccc3-c3ccccc3OC3CC3)CC2)cc1Cl)C(=O)[C@@H](O)[C@@H](O)[C@H](O)[C@@H](O)CO [Compound I-215, (2S,3S,4R,5S)-N-{4-[2,5-dichloro-4-({1-[4-(2-cyclopropoxyphenyl)pyridin-3-yl]cyclopropoxy}methyl)phenyl]butyl}-2,3,4,5,6-pentahydroxy-N-[(2S)-2-hydroxypropyl]hexanamide]"
8,< 100,"O=C([C@@H](O)[C@@H](O)[C@H](O)[C@@H](O)CO)N(CCCO)CCCCc1cc(Cl)c(COC2(c3cnccc3-c3ccccc3OC3CC3)CC2)cc1Cl [Compound I-217, (2S,3S,4R,5S)-N-{4-[2,5-dichloro-4-({1-[4-(2-cyclopropoxyphenyl)pyridin-3-yl]cyclopropoxy}methyl)phenyl]butyl}-2,3,4,5,6-pentahydroxy-N-(3-hydroxypropyl)hexanamide]"
